Assay results: publication PMC9321894, “Design and Anticancer Properties of New Water-Soluble Ruthenium–Cyclopentadienyl Complexes” (Pharmaceuticals, 2022)

Key:
[1] = system: A2780 ovarian cancer cells; assay: MTT cytotoxicity assay, A2780; assay type: cell-based, human; details: A2780, 72 h, mean ± SD n = 3
Experimental: (§1) The cytotoxic activity of all complexes was screened against A2780 (ovarian, Sigma-Aldrich, Lisboa, Portugal), MDAMB231 (breast, triple negative, ATCC), and HT29 (colon, ATCC) human cancer cells. Cells were grown in RPMI 1640 (A2780) or DMEM containing GlutaMax-I (MDAMB231), or McCoy’s (HT29) supplemented with 10% FBS and 1% penicillin/streptomycin (Invitrogen, Lisboa, Portugal). All cell lines were kept in a CO2 incubator (Heraeus, Hanau, Germany) with 5% CO2 at 37 °C in a humidified atmosphere. Cell viability was measured using the colorimetric MTT (3-(4,5-dimethylthiazol-2-yl)-2,5-diphenyltetrazolium bromide) assay. For the assays, cells were seeded in 200 μL of complete medium in 96-well plates and incubated at 37 °C for 24 h prior to complex treatment to allow cell adherence. The stock solutions in water (20 mM) of the complexes were freshly prepared and used for sequential dilutions in medium within the concentration range of 10^−10–10^−4 M. Cisplatin was also included in this study as a positive control. After careful removal of the medium, […] of a serial dilution of compounds in fresh medium was added to the cells, and incubation was carried out for 72 h at 37 °C. At the end of the treatment, the medium was discarded, and the cells were incubated with […] of an MTT solution in PBS (0.5 mg mL^−1). After 3 h incubation, medium was removed, and DMSO was added to solubilize the purple formazan crystals formed. The absorbance at 570 nm was measured using a plate spectrophotometer (Power Wave Xs, Bio-Tek, Winooski, VT, USA). Each experiment was repeated at least three times and each concentration tested in at least six replicates. The IC50 values were calculated from dose–response curves analyzed with the GraphPad Prism software (version 5.0).

[2] = system: HT29 colon cancer cells; assay: MTT cytotoxicity assay, HT29; assay type: cell-based, human; details: HT29, 72 h, mean ± SD n = 3
Experimental: as §1

[3] = system: MDAMB231 triple-negative breast cancer cells; assay: MTT cytotoxicity assay, MDAMB231; assay type: cell-based, human; details: MDAMB231, 72 h, mean ± SD n = 3
Experimental: as §1

[4] = Solubility in water; assay type: physicochemical; details: in presence of air, 25 °C
[5] = target: T1, human serum albumin (HSA) (Homo sapiens, UniProt P02768); assay: Fluorescence quenching of HSA (Trp214); assay type: binding; details: for KSV: pH 7.4
T1 construct: purchased Sigma-Aldrich A1653
Experimental: Human serum albumin (HSA) was dissolved in 10 mM HEPES buffer (pH 7.4). The HSA concentration was determined spectrophotometrically using the absorbance value at 280 nm (ε280 = 36,500 M^−1cm^−1). Complex 6 was dissolved in 10 mM HEPES buffer (pH 7.4). A series of ruthenium-protein batch solutions were prepared by adding different concentrations of ruthenium solutions to the protein solution prepared previously. For fluorescence acquisition, the final HSA concentration was 2.5 μM, and the ruthenium were 0, 0.6, 1.2, 1.8, 2.5, 5, 7.5, 10, 12.5, 15, 17.5, 20, 22.5, 25, 27.5, 30, 32.5, 35, 37.5, 40, 42.5, and 45 μM. […] The reference solutions were prepared following the procedures described above without protein.
Steady-state fluorescence measurements were carried out with a Fluorolog Model-3.22 spectrofluorometer from Horiba Jobin Yvon at 293.15, 298.15, and 310.15 K. All measurements were performed in Hellma® semi-micro fluorescence cuvettes (Suprasil® quartz, path length 10 × 4 mm, chamber volume […]) with the 10 mm path length for the excitation of the sample. The excitation and emission slit widths were fixed at 4.0 nm, and the excitation wavelength was set at 295 nm to selectively excite the tryptophan 214 residue. The emission spectra were recorded from 305 to 550 nm. Solutions of ruthenium complex in 10 mM HEPES buffer pH 7.4 in corresponding concentrations were used as reference for the measured fluorescence spectra of protein-complex mixtures. […] The fluorescence intensities were corrected for the absorption of the exciting light and re-absorption of the emitted light to decrease the inner filter effect using UV–visible absorption data recorded for each sample on a Jasco V-660 spectrophotometer in the range of 260 to 900 nm with 1 cm path quartz cells.
Fluorescence quenching of HSA by complex [Ru(η5-C5H5)(mTPPMS)(bopy)][CF3SO3] (6) […]
F0 = 1 + K τ (Q) = 1 + K (Q) (S1) where F0 and F are the fluorescence intensities of HSA in the absence and presence of the quencher [Ru(η5-C5H5)(mTPPMS)(bopy)][CF3SO3]; [Q] is the quencher concentration; Kq is the bimolecular quenching constant; t0 is the average fluorescence lifetime of HSA in the absence of the quencher, and KSV is the Stern-Volmer quenching constant.
Figure S10. Stern-Volmer plots at pH7.4 for the quenching of (A) HSA and (B) HSA faf by [Ru(η5-C5H5)(mTPPMS)(bopy)][CF3SO3] at three temperatures (◆) 293 K, (●) 298 K, (▲) 310 K.
log(F0 − F) = log K + nlog[Q] ( S2) […]
where Ka is the association constant for a site and n is the number of binding sites by protein.
Figure S11. Double-log plots for the fluorescence quenching for the (A) {HSA-[Ru(η5-C5H5)(mTPPMS)(bopy)][CF3SO3]} and (B) {HSAfaf-[Ru(η5-C5H5)(mTPPMS)(bopy)][CF3SO3]} systems at three temperatures (◆) 293 K, (●) 298 K, (▲) 310 K. […]

[6] = target: T2, {HSA-warfarin} adduct, Sudlow site I of HSA (Homo sapiens, UniProt P02768); assay: Site-marker competitive study with warfarin; assay type: binding; details: HSA and warfarin equimolar 2.5 μM, Ru 0-45 μM, excitation 305 nm, emission ~380 nm
T2 construct: purchased Sigma-Aldrich
Experimental: Competitive binding studies were carried out by fluorescence using the classical site marker warfarin. The concentrations of HSA and warfarin were kept equimolar. The addition of complex 6 to {HSA-warfarin} solution was done according to the procedure described above for the steady-state fluorescence quenching studies.

T1 sequence (P02768 25-609): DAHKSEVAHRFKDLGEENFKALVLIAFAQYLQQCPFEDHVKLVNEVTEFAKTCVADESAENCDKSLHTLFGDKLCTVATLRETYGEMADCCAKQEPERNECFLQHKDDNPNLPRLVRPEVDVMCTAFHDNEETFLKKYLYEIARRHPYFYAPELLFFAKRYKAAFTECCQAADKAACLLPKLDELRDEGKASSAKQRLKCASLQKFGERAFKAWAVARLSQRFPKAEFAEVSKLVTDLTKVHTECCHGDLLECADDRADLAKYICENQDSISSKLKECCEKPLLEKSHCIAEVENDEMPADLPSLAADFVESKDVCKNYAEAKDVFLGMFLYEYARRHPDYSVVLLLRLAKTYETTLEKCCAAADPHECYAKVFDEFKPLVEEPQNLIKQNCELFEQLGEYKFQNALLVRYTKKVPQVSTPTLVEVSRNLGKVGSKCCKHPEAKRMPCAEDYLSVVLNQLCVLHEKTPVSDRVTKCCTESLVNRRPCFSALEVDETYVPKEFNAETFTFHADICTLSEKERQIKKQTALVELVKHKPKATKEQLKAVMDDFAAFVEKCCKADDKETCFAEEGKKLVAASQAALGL
T2 sequence (P02768 25-609): as above

[RuCp(mTPPMSNa)(bopy)][CF3SO3] [Compound 6]
IC50 [1]: 370 ± 200 nM | IC50 [2]: 72.4 ± 50 µM | IC50 [3]: 13.4 ± 0.4 µM | S(H2O) [4]: 15.3 mg/mL | S(H2O) ([4]; value in brackets): 0.015 M | Ka (association constant for a site) ([5]; 293.15 K): (38.806 ± 1.26) × 10^4 L mol^−1 | Kq ([5]; 293.15 K): (7.91 ± 0.10) × 10^12 L mol^−1 s^−1 | n (number of binding sites) ([5]; 293.15 K): 1.136 | ΔG ([5]; 293.15 K): -72.37 kJ/mol | KSV ([5]; 293.15 K): (7.91 ± 0.10) × 10^4 L mol^−1 | Ka (association constant for a site) ([5]; 298.15 K): (19.467 ± 1.14) × 10^4 L mol^−1 | Kq ([5]; 298.15 K): (8.73 ± 0.12) × 10^12 L mol^−1 s^−1 | n (number of binding sites) ([5]; 298.15 K): 1.053 | ΔG ([5]; 298.15 K): -73.81 kJ/mol | KSV ([5]; 298.15 K): (8.73 ± 0.12) × 10^4 L mol^−1 | Ka (association constant for a site) ([5]; 310.15 K): (13.948 ± 1.15) × 10^4 L mol^−1 | Kq ([5]; 310.15 K): (10.4 ± 0.15) × 10^12 L mol^−1 s^−1 | n (number of binding sites) ([5]; 310.15 K): 0.994 | ΔG ([5]; 310.15 K): -77.26 kJ/mol | KSV ([5]; 310.15 K): (10.4 ± 0.15) × 10^4 L mol^−1 | ΔH ([5]; Van't Hoff, 293.15-310.15 K): 11.99 (R^2 = 0.9963) kJ mol^−1 | ΔS ([5]; Van't Hoff, 293.15-310.15 K): 287.92 J mol^−1 K^−1 | Quenching of fluorescence intensity ([5]; highest Ru concentration (45 μM), pH 7.4, incubation at 298 K for 24 h): 75% | Displacement of warfarin from {HSA-warfarin} adduct (in words) [6]: partially replaced
